In ChEMBL document CHEMBL3137667, “[Drug-induced liver injury; fourteenth updated edition of the bibliographic database of liver injuries and related drugs]” (Gastroenterol Clin Biol, 2004):

Experiments:
[1] = Proposed mechanism(s) of liver damage. [column 'MEC' in source]; settings: human
[2] = human, serum
[3] = human
[4] = Highest frequency of moderate liver toxicity observed during clinical trials, expressed as a percentage. [column '% BIOL' in source]; settings: human
[5] = human; remark: listed apart in the source
[6] = Presence of at least one case with successful reintroduction. [column 'REINT' in source]; settings: human
[7] = human; remark: listed apart in the source
[8] = human, serum, 4383 h
[9] = human; remark: listed apart in the source
[10] = human; remark: listed apart in the source
[11] = Highest frequency of acute liver toxicity observed during clinical trials, expressed as a percentage. [column '% AIGUE' in source]; settings: human
[12] = Comments (NB not yet translated). [column 'COMMENTAIRES' in source]; settings: human
[13] = human, serum; remark: listed apart in the source
[14] = Times to onset, minimal and maximal, observed in the indexed observations. [column 'DELAI' in source]; settings: human
[15] = human; remark: listed apart in the source
[16] = human; remark: listed apart in the source
[17] = human; remark: listed apart in the source
[18] = human; remark: listed apart in the source
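Throughout, for Hepatotoxicity (association with vascular disease): count of indexed literature references reporting vascular liver injury in humans, e.g. peliosis hepatitis, hepatic veno-occlusive disease or Budd-Chiari syndrome.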
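Throughout, for Hepatotoxicity (benign tumour): value is a count of indexed literature references citing a benign tumour confirmed by histopathology.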
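Throughout, for Hepatotoxicity (choleostasis): human cholestatic liver injury, shown by histopathology or by peak ALT or AST elevation over alkaline phosphatase ratio below 2, value counts indexed literature reports.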
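Throughout, for Hepatotoxicity (chronic liver disease): chronic liver injury confirmed by histopathology or persistently raised serum aminotransferase activity beyond 6 months, value given as the count of indexed literature references.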
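Throughout, for Hepatotoxicity (cirrhosis): value is a count of indexed literature references reporting cirrhosis confirmed by histopathology.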
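Throughout, for Hepatotoxicity (cytolytic): human cytolytic liver injury, shown by histopathology or by a ratio above 5 of peak ALT or AST elevation to alkaline phosphatase elevation, value counts indexed references.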
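Throughout, for Hepatotoxicity (granulomatous hepatitis): value is a count of indexed literature references reporting granulomatous liver disease confirmed by histopathology.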
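Throughout, for Hepatotoxicity (malignant tumour): malignant tumour confirmed by histopathology, value gives the count of indexed literature references reporting it.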
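Throughout, for Hepatotoxicity (severe hepatitis): human clinical data: severe hepatitis, meaning potentially life-threatening liver failure or clinically observed cases, the value counts how many indexed literature references report it.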
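Throughout, for Hepatotoxicity (steatosis): steatosis confirmed by histopathology, value is the count of indexed references.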

| SMILES | Hepatotoxicity (mechanism) [1] | Hepatotoxicity (moderate) [2] | Hepatotoxicity (cirrhosis) [3] | Hepatotoxicity (moderate) [4] | Hepatotoxicity (malignant tumour) [5] | Hepatotoxicity (successful reintroduction) [6] | Hepatotoxicity (benign tumour) [7] | Hepatotoxicity (chronic liver disease) [8] | Hepatotoxicity (severe hepatitis) [9] | Hepatotoxicity (steatosis) [10] | Hepatotoxicity (acute) [11] | Hepatotoxicity (comment) [12] | Hepatotoxicity (acute) [13] | Hepatotoxicity (time to onset) [14] | Hepatotoxicity (cytolytic) [15] | Hepatotoxicity (granulomatous hepatitis) [16] | Hepatotoxicity (choleostasis) [17] | Hepatotoxicity (association with vascular disease) [18] | Hepatotoxicity (moderate) ([4]; Liver) | Hepatotoxicity (severe hepatitis) ([9]; Liver) | further results |
| --- | --- | --- | --- | --- | --- | --- | --- | --- | --- | --- | --- | --- | --- | --- | --- | --- | --- | --- | --- | --- | --- |
| CC1(C)S[C@@H]2[C@H](NC(=O)[C@H](N)c3ccc(O)cc3)C(=O)N2[C@H]1C(=O)O.O=C(O)[C@H]1/C(=C/CO)O[C@@H]2CC(=O)N21 | Allergic | 15 | 1 | 15% | 0 | yes | 0 | 0 | 8 | 7 | 0.3% | CHOLANGITE #CBP AC_ANTI-N RC/ERYTHROMYCINE | 74 | < 1 day - 15 weeks | 21 | 6 | 61 | 0 |  |  |  |
| CCOC(=O)[C@H](CCc1ccccc1)N[C@@H](C)C(=O)N1CCC[C@H]1C(=O)O | Allergic | 9 | 0 | 2.8% | 0 | yes | 0 | 0 | 3 | 0 | 0% | DUCTOPENIE RC/CAPTOPRIL | 13 | 10 days - 3 years | 7 | 0 | 4 | 0 |  |  |  |
| COc1cc(Cc2cnc(N)nc2N)cc(OC)c1OC.Cc1cc(NS(=O)(=O)c2ccc(N)cc2)no1 [CO-TRIMOXAZOLE] |  | 46 | 0 |  | 0 | yes | 0 | 3 |  | 1 |  | RC/CEFADROXIL/SULFASALAZINE #CBP AC_ANTI-ML |  | 2 hours - 2 months |  |  |  | 0 | 53.8% | 11 | Hepatotoxicity (mechanism) ([1]; Liver): Allergic, Dose-dependant, Toxic Metabolite; Hepatotoxicity (cytolytic) ([15]; Liver): 17; Hepatotoxicity (granulomatous hepatitis) ([16]; Liver): 1; Hepatotoxicity (choleostasis) ([17]; Liver): 35 |
| O=C1OCCN1/N=C/c1ccc([N+](=O)[O-])o1 [FURAZOLIDONE] | Allergic | 1 | 0 | 0% | 0 | yes | 0 | 0 | 0 | 0 | 0% | RC/NITROFURANTOINE | 3 |  | 1 | 0 | 3 |  |  |  |  |
| O=C(CCCN1CCC(O)(c2ccc(Cl)cc2)CC1)c1ccc(F)cc1 [HALOPERIDOL] | Allergic | 12 | 0 | 35.1% | 0 | yes | 0 | 1 | 0 | 0 | 0.8% | RC/FLUPHENAZINE CHOLESTASE_PROLONGEE #CBP |  | 2 weeks - 5 months | 4 | 0 | 8 | 0 |  |  |  |
| Clc1ccc(C(c2ccccc2Cl)C(Cl)Cl)cc1 (stereo not given) [MITOTANE] | Dose-dependant | 5 | 0 | 0% | 0 | yes | 0 | 0 | 0 | 0 | 0% | INDUCTION_ENZYMATIQUE | 0 |  | 0 | 0 | 0 | 0 |  |  |  |
| CCCc1cc(=O)[nH]c(=S)[nH]1 [PROPYLTHIOURACIL] |  | 5 | 1 |  | 0 | yes | 0 | 4 |  | 0 |  | AC_ANTI-N/-M CHOLESTASE_PROLONGEE |  | 1 day - 1.3 years |  |  |  | 0 | 27.8% | 19 | Hepatotoxicity (mechanism) ([1]; Liver): Allergic, Reactive metabolite; Hepatotoxicity (cytolytic) ([15]; Liver): 31; Hepatotoxicity (granulomatous hepatitis) ([16]; Liver): 0; Hepatotoxicity (choleostasis) ([17]; Liver): 15 |
| C=C[C@H]1C[N@@]2CC[C@H]1C[C@@H]2[C@@H](O)c1ccnc2ccc(OC)cc12 [QUINIDINE] | Allergic | 5 | 0 |  | 0 | yes | 0 | 1 |  | 0 |  | RC/PRAJMALINE |  | 1 day - 7 months | 12 | 11 | 12 | 0 | 2% | 2 |  |
| C=C[C@H]1C[N@@]2CC[C@H]1C[C@H]2[C@H](O)c1ccnc2ccc(OC)cc12 [QUININE] | Allergic | 2 | 0 |  | 0 | yes | 0 | 0 |  | 0 |  | AC_ANTI-N |  | < 1 day - 2 years | 3 | 4 | 2 | 0 | 15.4% | 0 |  |
